From patent US20240382443A1, “GENERATION OF S-NITROSOACETYLCYSTEINE” (The UAB Research Foundation, priority 2023, published 2024)

Key:
[1] = system: mice with L-NAME-induced systemic hypertension; assay: L-NAME-induced systemic hypertension in mice, drinking water; type: in vivo; details: L-NAME-treated mice, NAC 0.5 g/L or nitrite 20 mg/L alone, 2 months
Description: L-NAME (N-nitro-L-arginine methyl ester) is an inhibitor of eNOS enzyme activity. Administering L-NAME in the drinking water of animals induces systemic hypertension by decreasing NO synthesis in blood vessels. In this study, mice were fed L-NAME alone (0.1 g/L) or L-NAME+NAC (0.5 g/L), L-NAME+nitrite (20 mg/L), or L-NAME+NAC with one of two nitrite doses (i.e., 10 mg/L or 20 mg/L) in drinking water for 2 months. Mean arterial blood pressure was measured by the tail-cuff method (Kent Scientific, Torrington, CT).
Acute doses of nitrite (0.1 to 1 mg/kg B. wt.) or NAC (10 to 50 mg/kg B. wt.) alone or in combination were administered sublingually or by oral gavage to anesthetized Wistar rats and blood collected at varying time points for measurement of total plasma SNOs by chemiluminescence method. BP was measured by femoral intra-arterial catheterization. Chronic studies were carried out in an L-NAME (eNOS inhibitor) induced hypertensive mouse model. Mice were randomized into five groups 1) control, 2) control L-NAME (0.1 g/L), 3) L-NAME+nitrite (20 mg/L), 4) L-NAME+nitrite (10 mg/L)+NAC (0.5 g/L), 5) L-NAME+nitrite (20 mg/L)+NAC 0.5 g/L) in drinking water for 2 months. Plasma S-nitrosothiols blood pressure (tail cuff method), arterial stiffness (Doppler method) were determined.

[2] = system: rats with severe Sugen-hypoxia-induced pulmonary hypertension; assay: Right ventricular systolic pressure (RVSP) after inhaled aerosol in Sugen-hypoxia pulmonary hypertension rats; type: in vivo, Sprague Dawley rats
Description: Stock SNOAC was prepared by reacting an appropriate amount of sodium nitrite and NAC in water just before use. The pH was adjusted to 7.0 with alkaline solution and then transferred to an Aeroneb Nebulizer (Kent Scientific). Severe PH was induced in Sprague Dawley rats by subcutaneous injection of vascular endothelial growth factor receptor antagonist Sugen 5416 followed by exposure to hypoxia (10% O2) for 3 weeks and normoxia for 4 weeks. Right ventricular systolic pressure (RVSP) was measured invasively in a closed-chest, spontaneously breathing rat model as an indicator of pulmonary arterial pressure. Rats were anesthetized with 1.5% isoflurane in air with a flow rate of 2 L/min. A blood pressure catheter was inserted into the right ventricle through the jugular vein, and baseline RVSP was measured. After the pressure stabilized, the aerosolized drug was introduced into the isoflurane line for 5 minutes.

[3] = Plasma and organ RSNOs after oral gavage of nitrite in neutral NAC; type: in vivo, rats; details: single agent alone, nitrite 1.5 mg/kg, NAC 50 mg/kg
Description: […] BP was measured by femoral intra-arterial catheterization. Chronic studies were carried out in an L-NAME (eNOS inhibitor) induced hypertensive mouse model. Mice were randomized into five groups 1) control, 2) control L-NAME (0.1 g/L), 3) L-NAME+nitrite (20 mg/L), 4) L-NAME+nitrite (10 mg/L)+NAC (0.5 g/L), 5) L-NAME+nitrite (20 mg/L)+NAC 0.5 g/L) in drinking water for 2 months. Plasma S-nitrosothiols blood pressure (tail cuff method), arterial stiffness (Doppler method) were determined.

[4] = system: normotensive rats; assay: Femoral mean arterial pressure after sublingual administration in normotensive rats; type: in vivo; details: 0.2, 0.4 or 0.8 mg nitrite/kg with 10 mg NAC
Description: Normotensive rats were anesthetized with isoflurane. The femoral artery was catheterized with a Micro-Tip Catheter Transducer (AD Instruments, Houston, TX) for monitoring of blood pressure. Once the baseline blood pressure was stabilized, at approximately 30 minutes, rats were treated sublingually with 50 μL of SNOAC generated by reacting 0.2 mg, 0.4 mg, or 0.8 mg nitrite/kg body weight with a fixed concentration of 10 mg NAC (FIG. 5). Control rats were treated with nitrite or NAC alone. The mean arterial pressure (MAP) was continually monitored.

[5] = system: eNOS^-/- mice; assay: Tail-cuff MAP in eNOS-/- hypertensive mice, drinking water; type: in vivo; details: nitrite 50 mg/L, NAC 500 mg/L in drinking water for 2 months, versus eNOS-/- control
Description: 15-week-old wild-type (WT) and eNOS^-/- mice were divided into 5 groups. (1) WT control, (2) eNOS^-/- control, (3) eNOS^-/-+nitrite, (4) eNOS^-/-+NAC, and (5) eNOS^-/-+nitrite+NAC. NAC was dissolved in the drinking water, and pH was adjusted to 7.0 to prevent initial nitrite reaction with NAC. The mice were given pharmacological doses of nitrite (50 mg/L) and NAC (500 mg/L) individually or in combination for 2 months.

[6] = system: normotensive rats; assay: Mean arterial pressure after oral gavage in normotensive rats; type: in vivo; details: 0.5 mL
Description: The mean arterial pressure (MAP) was continually monitored.
The MAP in rats was measured as described for sublingual administration. After baseline blood pressure was measured, 0.5 mL of nitrite alone, NAC alone, or the nitrite−NAC mixture was administered by gavage.

[7] = system: Spontaneously Hypertensive Rats (SHR); assay: Tail-cuff MAP in SHR and WKY rats, drinking water; type: in vivo; details: NAC 1.2 g/L, nitrite 60 mg/L in drinking water, end of 3 months, versus SHR control
Description: SHR rats are a well-established model used to study essential hypertension. Normotensive Wistar Kyoto rats (WKY) were used as a control group. Rats were fed with NAC (1.2 g/L), nitrite (60 mg/L), or a combination of the two in drinking water for 3 months. Mean arterial blood pressure was measured by the tail-cuff method once each month.

[8] = Total S-nitrosothiols in blood after sublingual nitrite and NAC in mice; type: in vivo; details: 0.1 mg nitrite and 10 mg NAC
Description: FIG. 14 is a graphical representation of the transfer of the SNOAC that is generated in the sublingual space to blood circulation in mice. The concentration of total S-nitrosothiols at 1, 30 min., and 60 min. was determined after mice were sublingually administered 0.1 mg nitrite and 10 mg NAC in 50 μL of water, generating SNOAC.
In this study, the sublingual and buccal cavity medication route of SNOAC generation and administration for acute dosing was first examined. A dose of NAC and sodium nitrite with 25 μL of water was placed under the tongue of mice or rats. Specifically, a dose of 0.1 mg of nitrite and 10 mg of NAC was placed under the tongue of the subject, blood was collected varying time points, and total S-nitrosothiols (SNO) were measured by a chemiluminescence method. […] As shown in FIG. 14 for mice and FIG. 4 for rats, SNOAC is generated in the buccal cavity and absorbed into circulation.

[9] = system: angiotension-2—induced acute PH; assay: Angiotensin-2-induced acute pulmonary hypertension in control rats; type: in vivo; details: inhalation
[10] = Plasma S-nitrosothiols and nitrite after sublingual SNOAC in rats; type: in vivo
Description: Because the chemicals cannot be placed in the buccal cavity of experimental animals, SNOAC was prepared in a test tube just before use and then placed in the sublingual space. Normotensive rats were anesthetized and the femoral artery was cannulated to collect blood. Stock SNOAC at 30 μmoles/mL was prepared by reacting sodium nitrite with NAC at the molar ratio of 1:2 in water just before use. It is believed that all of the nitrite is converted to SNOAC under these conditions. After baseline blood samples were collected in heparinized tubes, approximately 50 μL of SNOAC solution (0.4 mg nitrite and 1.87 mg NAC/kg body weight) was placed under the tongue of anesthetized rats. Blood was collected at 10-minute intervals. The plasma was separated, and nitrite and total S-nitrosothiols in plasma were determined. […] There was no change in plasma nitrite levels.
In this study, the sublingual and buccal cavity medication route of SNOAC generation and administration for acute dosing was first examined. A dose of NAC and sodium nitrite with 25 μL of water was placed under the tongue of mice or rats. Specifically, a dose of 0.1 mg of nitrite and 10 mg of NAC was placed under the tongue of the subject, blood was collected varying time points, and total S-nitrosothiols (SNO) were measured by a chemiluminescence method. […]

[11] = SNOAC life span
[12] = RSNO decomposition in water monitored by spectra; type: physicochemical; details: over 15 hours; from 15 mM sodium nitrite and 60 mM N-acetylcysteine in water
Description: FIG. 11 is a graphical representation of generation and decomposition of S-nitroso-N-acetylcysteine (RSNO). In the left panel, RSNO generation is show when 15 mM sodium nitrite is reacted with 60 mM N-acetylcysteine (RSH) in water. All nitrite is converted instantly to RSNO. In the right panel, RSNO decomposition is monitored by recording spectra at 1.5 hour intervals over 15 hours. Approximately 50% of the RSNO was decomposed over the 15 hours.
Nitrite is converted to […] by reacting with RSH in water. RSNOs have potent vasodilatory, anti-inflammatory, and antiplatelet activities. As shown by the comparison of generation of RSNO in FIG. 11, left panel, with degradation in FIG. 11, right panel, the instability of RSNO after preparation is a major hindrance to use them as NO donors to restore the NO bio-availability that decrease with aging and pathophysiological conditions of cardiovascular diseases. Therefore, RSNOs have proven easy to prepare, but not typically stable after preparation.

[13] = system: cardiac proteins; assay: SNO-RAC proteomics of rat heart tissue; type: in vivo, rats; details: single oral gavage dose, hearts collected after 1 hour
Description: FIG. 12 is a graphical representation of proteomics analysis of rat heart tissue. A single dose of nitrite and NAC at neutral pH were administered by oral gavage to rats. Rats were sacrificed after 1 hour and the hearts were collected. Total RSNO sites were identified using the a SNO-RAC (resin assisted capture) protocol. Proteomics was performed using liquid chromatography-tandem mass spectrometry (LC-MS/MS) analysis.

Compound | MAP [1] | effect on RVSP of inhaled precursor molecules alone ([2]; hypertensive rats) | mean arterial pressure (MAP) [4] | MAP [5] | MAP [6] | MAP [7] | RVSP course after cessation of inhalation ([2]; hypertensive rats) | also measured
CC(=O)N[C@@H](CS)C(=O)O [NAC, N-acetylcysteine] | no significant change | no effect | no change | no significant change | neither nitrite nor NAC alone altered the blood pressure | modestly decreased | – | increase in plasma RSNOs [3]: no change
CC(=O)N[C@@H](CSN=O)C(=O)O [SNOAC, S-nitroso-N-acetylcysteine] | – | – | – | – | – | – | slowly increased over the following 40 minutes, while still remaining lower than the baseline value | total S-nitrosothiols (SNO) over time [8]: increased with increasing the time; angiotensin-2-induced acute PH [9]: significantly decreased; plasma nitrite levels ([10]; after sublingual SNOAC): no change; total plasma S-nitrosothiols (SNO) over time ([10]; rats, sublingual): increased with increasing the time; RVSP change in control animals ([2]; control animals, baseline RVSP 30 mmHg): did not change significantly; RVSP after another dose of aerosolized drug after 40 minutes ([2]; hypertensive rats): sustained decrease in RVSP that was longer than after the initial dose; time the RVSP decrease was sustained at the same level after cessation of drug ([2]; hypertensive rats): 5 min; RVSP after inhalation of aerosolized drug ([2]; hypertensive rats, baseline RVSP 125 mmHg, inhalation for 5 minutes): 96 mmHg; life span [11]: about 30 min; RSNO decomposed [12]: Approximately 50%; S-nitrosylation of cardiac proteins [13]: increased with increasing the dose of RSNO
nitric oxide [NO gas] | – | – | – | – | – | – | rapidly bounced back to baseline after cessation | RVSP during inhalation of NO gas ([2]; hypertensive rats, 30 ppm inhaled for 5 minutes): rapid decrease in RVSP
O=NO [nitrite, sodium nitrite] | no significant change | no effect | no change | no significant change | neither nitrite nor NAC alone altered the blood pressure | no effect | – | effect on PH at higher doses ([2]; even at higher doses): No effect
